What was measured:
human IgG = human IgG (Homo sapiens, UniProt P01857); experiment: SPR affinity analysis of IgG-binding peptides on immobilized IgG (BIAcore T200); design: kd: unit not given here; conditions: for ka / kd: SPR, peptides N-terminally blocked with biotinylated PEG4, NHS group hydrolysed
Protocol: 0.4 M EDC (1-ethyl-3-(3-dimethylaminopropyl)-carbodiimide) and 0.1 M sulfo-NHS (sulfo-N-hydroxysuccinimide) were mixed in equal amounts and then injected onto a CMS sensor chip loaded in BIAcore T200 (GE Healthcare Japan Corp.) for 7 minutes at a flow rate of […] to activate the sensor chip. IgG was immobilized thereonto in an amount of 4000 to 5000 in terms of RU value under conditions of pH 4.0 (10 mM sodium acetate). While a HBS-EP buffer solution (0.01 M HEPES, 0.15 M NaCl, 0.005% Tween 20, and 3 mM EDTA, pH 7.0) was used, binding reaction was monitored by the injection of the peptide at a concentration of 10 nM to 2 μM for 180 seconds at a flow rate of […]. Then, dissociation reaction was assayed by washing with a buffer solution for 600 seconds. Binding parameters were analyzed using BIAevalution T100 software.

hIgG = target: T1, hIgG (Homo sapiens, UniProt P01857); experiment: ELISA of biotinylated IgG-binding peptide on plate-adsorbed hIgG; conditions: peptide unmodified with cross-linking agent
T1 construct: purchased Chugai Pharmaceutical Co., Ltd
T1 sequence (P01857 1-328): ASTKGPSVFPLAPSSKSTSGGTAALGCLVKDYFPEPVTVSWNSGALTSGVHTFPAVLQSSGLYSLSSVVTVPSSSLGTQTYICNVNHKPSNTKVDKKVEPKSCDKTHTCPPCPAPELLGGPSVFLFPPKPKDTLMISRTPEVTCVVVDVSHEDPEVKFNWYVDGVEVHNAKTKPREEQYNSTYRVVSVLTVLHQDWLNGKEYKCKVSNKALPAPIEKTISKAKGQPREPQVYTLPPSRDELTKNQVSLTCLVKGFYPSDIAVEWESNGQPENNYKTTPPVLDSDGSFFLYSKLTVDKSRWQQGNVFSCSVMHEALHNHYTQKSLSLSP
Protocol: A 0.1 M NaHCO3 solution containing each protein (IgG (Chugai Pharmaceutical Co., Ltd.), IgA (Athens Research & Technology, Inc.), or bovine gelatin (Wako Pure Chemical Industries, Ltd.)) (50 ng (0.33 pmol)/μ1/well) was added to wells of a 96-well microplate (Nunc® MaxiSorp), and the plate was left overnight at room temperature to adsorb each protein onto the surface of the plate. After blocking with 0.5% BSA, a biotinylated IgG-binding peptide modified with DSG (molar ratio: 0, 1, 2, 5, or 10), prepared in the same way as in Example 2 was added to each well. After 1 hour, the reaction was terminated by the addition of 1 M Tris-HCl (pH 7.0) at 3 μL/well. SA-HRP (Vector Laboratories, Inc.) diluted 2000-fold with 0.5% BSA was added thereto at 50 μL/well and reacted at room temperature for 1 hour. Then, the plate was washed five times with 0.1% PBST. Then, a TMB solution (Wako Pure Chemical Industries, Ltd.) was used in the color development of HRP. After 5-minute chromogenic reaction, the absorbance at 450 nm was measured using an ELISA plate reader (model 680 microplate reader (Bio-Rad Laboratories, Inc.)).
The biotinylated IgG-binding peptide modified with DSG was added at a molar ratio of 2 to hIgG (50 ng) immobilized overnight at 4° C. with a 50 ng/50 μL solution. […] The binding was detected in the same way as in (A).

Chain of human IgG (P01857 1-328): as above

Substance | ka (human IgG) | kd (human IgG) | binding to hIgG (ELISA) (hIgG) | decrease of affinity for human IgG as compared with Type I (human IgG; R8K substitution versus peptide before substitution)
GDDCAYHK(DSG-OH)GELVWCTFH-NH2 [Type I(R8K)-DSG-OH] | 3.29E+05 | 0.1036 |  | 
GDDCAYHK(DSS-OH)GELVWCTFH-NH2 [Type I(R8K)-DSS-OH] | 1.68E+05 | 0.06136 |  | 
GDDCAYHKGELVWCTFH-NH2 [Type I(R8K)] | 1.25E+06 | 0.195 | Very weak binding | 10 times
GPDCAYHRGELVWCTFH-NH2 [Type I] | 1.57E+06 | 0.0144 |  | 

— patent US12037417B2, “Site-specific radioisotope-labeled antibody using IgG-binding peptide” (Kagoshima University, priority 2016, dated 2024)
